One assay deals with Jurkat cell. In words: Jurkat IL-2 Production Assay. The settings on record: Homo sapiens, serum condition (1% FBS/PHA or 30% FBS/PMA-ionomycin) not specified. In kind it is cell-based. On the procedure: Jurkat IL-2 Production Assay
Cell: Jurkat cell (ATCC) was grown in RPMI 1640 with 10% FBS and 1% penicillin/streptomycin. The cell density was kept at 1.2˜18×10^6/mL in culture flask before seeding into culture plate, and the cell density in the plate was 0.5×10^6/200 μL/well.
Culture media: RPMI 1640 with 1% FBS or 30% FBS for high serum assay.
Test compound: serial dilution was done in 100% DMSO, and intermediate dilution was done with RPMI 1640 medium with 1% FBS. The DMSO final concentration in culture well was 0.25%.
Stimulant: PHA (Sigma#L9017-10MG) was used for the assay with 1% F/BS in culture medium, and added after 10 minutes exposure of cell to compound/DMSO. The PHA final concentration in culture well was 5 μg/mL. PMA (Sigma#P-8139 5MG)/Ionomycin (Sigma# I0634-5MG) was used for the assay with 30% FBS in culture medium, and added at same time point as the 1% FBS culture assay. The final concentration of PMA was […], and lonomycin final concentration was 500 ng/mL.
Incubation: at 37° C. with 5% CO2 and 95% humidity for 18 h˜20 h.
IC50: IC50 was calculated with the data analysis software XLfit4, General Pharmacology model 251.

Another assay concerns human whole blood. Put plainly: Human Whole Blood (HWB) Assay, inhibition of T cell IL-2 production. The class given is cell-based. Particulars: IL-2 in plasma, human whole blood stimulated with 10 μM Thapsigargin overnight, AlphaLISA. The protocol: Human Whole Blood (HWB) Assay
Inhibition of T cell IL-2 production CRAC compounds were tested in human whole blood from normal donors. 200 μl of human whole blood was aliquoted into each well of a round bottom 96 well plate. Concentration-response curves were generated for test compounds and CsA (as controls) by performing serial dilutions of the compounds and incubating each concentration in a single well for 30 min (experiment was performed in triplicate). Following incubation, the blood was stimulated with 10 μM Thapsigargin (SIGMA) overnight at 37° C. IL-2 concentrations in the plasma were determined by AlphaLISA IL-2 assay (Perkin Elmer). Data analysis was performed using GraphPad PRISM5.
(Alpha assays give light when donor and acceptor beads are brought close together.)

SMILES strings stand for the structures.

In general, IC50 refers to the midpoint of a concentration-inhibition curve. Read a high IC50 as weaker potency in that assay.

In the case of `CCn1nc(C(F)(F)F)cc1-c1cnc2c(c1)OCC(c1c(F)cccc1F)N2` (stereo not shown) [Example 1, 3-(2,6-Difluoro-phenyl)-7-(2-ethyl-5-trifluoromethyl-2H-pyrazol-3-yl)-3,4-dihydro-2H-pyrido[3,2-b][1,4]oxazine], it took 140 nM to reach half-maximal inhibition in the assay with Jurkat cell (IC50). Take `CCn1nc(-c2cccnc2)cc1-c1cnc2c(c1)OCC(c1c(F)cccc1F)N2` (stereo not shown) [Example 2, 3-(2,6-Difluoro-phenyl)-7-(2-ethyl-5-pyridin-3-yl-2H-pyrazol-3-yl)-3,4-dihydro-2H-pyrido[3,2-b][1,4]oxazine]: inhibition in the assay on human whole blood was half-maximal at 2680 nM (IC50).

Take `CCn1nc(-c2cnccn2)cc1-c1cnc2c(c1)OCC(c1c(F)cccc1F)N2` (stereo not shown) [Example 3, 3-(2,6-Difluoro-phenyl)-7-(2-ethyl-5-pyrazin-2-yl-2H-pyrazol-3-yl)-3,4-dihydro-2H-pyrido[3,2-b][1,4]oxazine]: the IC50 in the assay on human whole blood was found to be 2400 nM. On the same count and under the same terms, as for `Cc1sc(-c2ccccn2)nc1-c1cnc2c(c1)OCC(c1c(F)cccc1F)N2` (stereo not shown) [Example 4, 3-(2,6-Difluoro-phenyl)-7-(5-methyl-2-pyridin-2-yl-thiazol-4-yl)-3,4-dihydro-2H-pyrido[3,2-b][1,4]oxazine], the figure is 6300 nM; as for `CCc1sc(-c2cccnc2)nc1-c1cnc2c(c1)OCC(c1c(F)cccc1F)N2` (stereo not shown) [Example 5, 3-(2,6-Difluoro-phenyl)-7-(5-ethyl-2-pyridin-3-yl-thiazol-4-yl)-3,4-dihydro-2H-pyrido[3,2-b][1,4]oxazine], 560 nM; as for `Cc1sc(-c2ccncc2)nc1-c1cnc2c(c1)OCC(c1c(F)cccc1F)N2` (stereo not shown) [Example 6, 3-(2,6-Difluoro-phenyl)-7-(5-methyl-2-pyridin-4-yl-thiazol-4-yl)-3,4-dihydro-2H-pyrido[3,2-b][1,4]oxazine], 4520 nM. `Cc1ccc(-c2ncco2)cc1-c1cnc2c(c1)OCC(c1c(F)cccc1F)N2` (stereo not shown) [Example 7, 3-(2,6-Difluoro-phenyl)-7-(2-methyl-5-oxazol-2-yl-phenyl)-3,4-dihydro-2H-pyrido[3,2-b][1,4]oxazine] showed an IC50 in the assay with human whole blood of 8160 nM.

These data come from patent publication US20130090334A1, “AZABENZOXAZINE DERIVATIVES AS CRAC MODULATORS” (Hoffmann-La Roche Inc, priority 2011, published 2013).
